The test system of the test is Swiss mice, Sarcoma 180 sc, mean tumor weight T/C. Briefly: NCI In Vivo Anticancer Drug Screen. Data for tumor model Sarcoma 180 (subcutaneous) in Swiss mice. The settings on record: endpoint: mean tumor weight, higher = larger tumour. As to the method: The antitumor activity of compounds was measured in mice bearing transplantable tumors. Survival or tumor size were measured and the results are expressed as the measurement made in the treated group (T) divided by the measurement made in the vehicle treated control group (C). The tumor model used in this assay is Sarcoma 180 (subcutaneous) in Swiss mice

The mark [1] stands for this setting: dose: 187.5 mg/kg/injection, schedule: Q#A X014 (ip), vehicle: methylcellulose (MC).
[2] abbreviates: dose: 50.0 mg/kg/injection, schedule: Q#A X014 (sc), vehicle: steriod suspending solution.

Structures are written as SMILES. Where “and” joins values, the source holds several entries; their conditions need not be identical. Identical values can stand only once.

Turning to `CC(C)(C)C(=O)/C=C/c1ccc([N+](=O)[O-])cc1`, the T/C by setting is: (dose: 50.0 mg/kg/injection, schedule: Q#A X014 (ip), vehicle: methylcellulose (MC)) 92 % of control; under setting [1], 70 % of control.

With `CN1CCC=C(C(=O)O)C1`, the T/C (dose: 10.0 mg/kg/injection, schedule: Q01DX007 (ip), vehicle: water) is 78 % of control; the T/C (dose: 50.0 mg/kg/injection, schedule: Q01DX007 (ip), vehicle: water) was 75 % of control; the T/C (dose: 100.0 mg/kg/injection, schedule: Q01DX007 (ip), vehicle: water) was 83 % of control.

As for `CC(CN)CCC(C)(O)C(N)=O` (stereo not drawn), the T/C (dose: 83.0 mg/kg/injection, schedule: Q#A X014 (ip), vehicle: methylcellulose (MC)) is 63 % of control; the T/C (dose: 125.0 mg/kg/injection, schedule: Q#A X014 (ip), vehicle: methylcellulose (MC)) is 49 % of control; the T/C under setting [1] is 47 % of control.

As for `C[C@H]1C[C@@H]2[C@H]([C@@H](O)C[C@@]3(C)[C@H]2CC[C@]3(O)C(=O)CO)[C@@]2(C)C=CC(=O)C=C12`, the T/C is, setting by setting: (dose: 6.25 mg/kg/injection, schedule: Q#A X014 (sc), vehicle: steriod suspending solution) 82 % of control; (dose: 12.5 mg/kg/injection, schedule: Q01DX007 (sc), vehicle: water) 45 % of control; (dose: 12.5 mg/kg/injection, schedule: Q#A X014 (sc), vehicle: steriod suspending solution) 40 % of control; (dose: 25.0 mg/kg/injection, schedule: Q01DX007 (sc), vehicle: water) 41 % of control; (dose: 25.0 mg/kg/injection, schedule: Q#A X014 (sc), vehicle: steriod suspending solution) 33 % of control; (dose: 50.0 mg/kg/injection, schedule: Q01DX007 (sc), vehicle: water) 39 % of control. In addition, the T/C reads like this: under setting [2], 27 % of control; (dose: 100.0 mg/kg/injection, schedule: Q01DX007 (sc), vehicle: water) 18 % of control; (dose: 100.0 mg/kg/injection, schedule: Q#A X014 (sc), vehicle: steriod suspending solution) 17 % of control.

For the compound `Cc1cc2c(c3oc(C4(C)OC4C4OC4C)cc(=O)c13)C(=O)c1c(O)c(C3CC(C)(N(C)C)C(O)C(C)O3)cc(C3CC(N(C)C)C(O)C(C)O3)c1C2=O` (stereo not drawn), the T/C is 100 % of control (dose: 0.05 mg/kg/injection, schedule: Q01DX007 (sc), vehicle: other) and 79 % of control (dose: 0.1 mg/kg/injection, schedule: Q01DX007 (sc), vehicle: other).

In the case of `O=S(=O)(OCCCl)OCCCl`, the T/C is 54 % of control (dose: 31.2 mg/kg/injection, schedule: Q01DX007 (ip), vehicle: other) and 66 % of control (dose: 62.5 mg/kg/injection, schedule: Q01DX007 (ip), vehicle: other).

Turning to `CC1OC2CC(=O)OC2C2=C1C(=O)c1c(O)c3c(c(O)c1C2=O)C1CC(O)C3(O)C(C)O1` (stereo not drawn), the T/C runs as follows: (dose: 0.01 mg/kg/injection, schedule: Q01DX007 (ip), vehicle: saline) 114 % of control; (dose: 0.03 mg/kg/injection, schedule: Q01DX007 (ip), vehicle: saline) 112 % of control; (dose: 0.1 mg/kg/injection, schedule: Q01DX007 (ip), vehicle: saline) 112 % of control; (dose: 0.2 mg/kg/injection, schedule: Q01DX007 (ip), vehicle: saline) 113 % of control; (dose: 0.4 mg/kg/injection, schedule: Q01DX007 (ip), vehicle: saline) 116 % of control; (dose: 0.8 mg/kg/injection, schedule: Q01DX007 (ip), vehicle: saline) 99 % of control. Moreover, the T/C reads like this: (dose: 1.6 mg/kg/injection, schedule: Q01DX007 (ip), vehicle: saline) 94 % of control; (dose: 6.4 mg/kg/injection, schedule: Q01DX007 (ip), vehicle: saline) 79 % of control; (dose: 12.0 mg/kg/injection, schedule: Q01DX007 (ip), vehicle: saline) 88 % of control; (dose: 12.8 mg/kg/injection, schedule: Q01DX007 (ip), vehicle: saline) 64 % of control; (dose: 24.0 mg/kg/injection, schedule: Q01DX007 (ip), vehicle: saline) 61 % of control.

On to `CCC(CC)C(O)CCCN(C)C` (stereo not drawn), for which the T/C reads like this: (dose: 100.0 mg/kg/injection, schedule: Q01DX007 (ip), vehicle: saline) 103 % of control; (dose: 200.0 mg/kg/injection, schedule: Q01DX007 (ip), vehicle: saline) 95 % of control; (dose: 400.0 mg/kg/injection, schedule: Q01DX007 (ip), vehicle: saline) 75 % of control.

For the compound `O=c1cccc2n1CC1CNC[C@H]2C1`, the T/C runs as follows: (dose: 0.78 mg/kg/injection, schedule: Q01DX007 (ip), vehicle: saline) 92 % of control; (dose: 1.56 mg/kg/injection, schedule: Q01DX007 (ip), vehicle: saline) 97 % of control; (dose: 3.13 mg/kg/injection, schedule: Q01DX007 (ip), vehicle: saline) 62 % of control and 87 % of control; (dose: 6.25 mg/kg/injection, schedule: Q01DX007 (ip), vehicle: saline) 64 % of control.

Turning to `OCCOCC(F)(F)F`, the T/C runs as follows: (dose: 125.0 mg/kg/injection, schedule: Q01DX007 (ip), vehicle: saline) 100 % of control; (dose: 250.0 mg/kg/injection, schedule: Q01DX007 (ip), vehicle: saline) 101 % of control; (dose: 500.0 mg/kg/injection, schedule: Q01DX007 (ip), vehicle: saline) 63 % of control.

As to `C[C@]12CC[C@H](O)C[C@@H]1CC[C@@H]1[C@@H]2C(=O)C[C@]2(C)C3=CC(=O)O[C@H]3C[C@@H]12`, the T/C by setting is: (dose: 5.0 mg/kg/injection, schedule: Q01DX007 (sc), vehicle: steriod suspending solution) 103 % of control; (dose: 10.0 mg/kg/injection, schedule: Q01DX007 (sc), vehicle: steriod suspending solution) 97 % of control; (dose: 40.0 mg/kg/injection, schedule: Q01DX007 (sc), vehicle: steriod suspending solution) 95 % of control.

As to `O=C(O)c1ccc(N=NSc2ncnc3nc[nH]c23)cc1O`, the T/C is, setting by setting: (dose: 0.2 mg/kg/injection, schedule: Q01DX007 (ip), vehicle: carboxymethylcellulose (CMC)) 101 % of control; (dose: 0.5 mg/kg/injection, schedule: Q01DX007 (ip), vehicle: carboxymethylcellulose (CMC)) 115 % of control; (dose: 1.0 mg/kg/injection, schedule: Q01DX007 (ip), vehicle: carboxymethylcellulose (CMC)) 108 % of control; (dose: 8.0 mg/kg/injection, schedule: Q01DX007 (ip), vehicle: carboxymethylcellulose (CMC)) 9 % of control.

With `O=C(CCN1CC1)OCCOC(=O)CCN1CC1`, the T/C by setting is: (dose: 4.0 mg/kg/injection, schedule: Q#A X014 (ip), vehicle: methylcellulose (MC)) 44 % of control; (dose: 6.0 mg/kg/injection, schedule: Q#A X014 (ip), vehicle: methylcellulose (MC)) 60 % of control; (dose: 9.0 mg/kg/injection, schedule: Q#A X014 (ip), vehicle: methylcellulose (MC)) 50 % of control.

Take `CNC(C)=O`: the T/C is, setting by setting: (dose: 125.0 mg/kg/injection, schedule: Q01DX007 (ip), vehicle: carboxymethylcellulose (CMC)) 84 % of control; (dose: 250.0 mg/kg/injection, schedule: Q01DX007 (ip), vehicle: carboxymethylcellulose (CMC)) 90 % of control and 106 % of control; (dose: 500.0 mg/kg/injection, schedule: Q01DX007 (ip), vehicle: carboxymethylcellulose (CMC)) 71 % of control; (dose: 623.2 mg/kg/injection, schedule: Q01DX007 (ip), vehicle: carboxymethylcellulose (CMC)) 72 % of control; (dose: 779.0 mg/kg/injection, schedule: Q01DX007 (ip), vehicle: carboxymethylcellulose (CMC)) 75 % of control; (dose: 1038.66 mg/kg/injection, schedule: Q01DX007 (ip), vehicle: carboxymethylcellulose (CMC)) 69 % of control. Further, the T/C (dose: 1558.0 mg/kg/injection, schedule: Q01DX007 (ip), vehicle: carboxymethylcellulose (CMC)) is 58 % of control and the T/C (dose: 2000.0 mg/kg/injection, schedule: Q01DX007 (ip), vehicle: carboxymethylcellulose (CMC)) was 23 % of control.

For the compound `C[C@]12CCC(=O)C[C@H]1CC[C@@H]1[C@@H]2C(=O)C[C@@]2(C)[C@H]1CC[C@]2(C)O`, the T/C is 72 % of control (dose: 5.0 mg/kg/injection, schedule: Q#A X014 (sc), vehicle: steriod suspending solution); 78 % of control under setting [2]; 110 % of control (dose: 150.0 mg/kg/injection, schedule: Q#A X014 (sc), vehicle: steriod suspending solution).

By T/C is commonly meant the result in the treated group divided by that in the control group, in per cent.

The values are drawn from PubChem BioAssay AID342 (DTP/NCI, 2004).
